Measurements as given in paper PMC7200784, “In-vitro safety and off-target profile of the anti-parasitic arylmethylaminosteroid 1o” (Scientific Reports, 2020).

Test system: Caco-2 cell barrier
Assay: Caco-2 cell barrier integrity (TEER and capacitance, cellZscope2)
Format: cell-based
Settings: 20 h after addition, value before addition = 100%; 10 mM EGTA
Description: Twenty thousand CaCo-2 cells were seeded on 24-well ThinCerts (pre-coated with FCS for 30 min). In the lower compartment (basolateral), 1 ml culture medium per well was added. As a control, half of the ThinCerts were not seeded with cells. The ThinCerts were transferred to the cellZscope2 (nanoAnalytics). Two hundred µl of medium was added to the ThinCerts to reach a final volume of 300 µl in the upper compartment (apical). The TEER and capacitance were measured every hour. After 5 days, the TEER reached a constant value of 700–900 Ohm*cm² and the medium was replaced with EMEM with 2% FCS, 2 mM L-glutamine, 1x non-essential amino acids, and 110 nM hydrocortisone. The TEER and capacitance were measured every hour for 1 day. Sc1o (0 µM, 1 µM, 10 µM, 25 µM, 50 µM) diluted in EMEM with 2% FCS, 2 mM L-glutamine, 1x non-essential amino acids, and 110 nM hydrocortisone were added to the apical compartment. As a control, 10 mM of EGTA was used. The cellZscope2 module was transferred into the incubator for 24 h, and every 30 min the TEER and capacitance were detected. TEER and capacitance values at the time point of adding the compound solution were used as references to calculate the alteration (t0h-value). […] At time point 0h and after 24 h the medium of the basolateral and apical compartment was collected and stored at −20 °C and analysed by LC-MS/MS.

O=C(O)CN(CCOCCOCCN(CC(=O)O)CC(=O)O)CC(=O)O [EGTA, Ethylene glycol-bis(β-aminoethyl ether)-N,N,N′,N′-tetraacetic acid]
Relative TEER: 0.12 ± 0.03% | Relative capacitance: 481 ± 168%
